Measured values taken from ChEMBL document CHEMBL3046606, “Synthesis and antifungal activity of novel sulfone derivatives containing 1,3,4-oxadiazole moieties” (Molecules, 2011).

Tested on: Cytospora
Assay: Antifungal activity against Cytospora mandshurica at 50 ug/ml after 5 days by poison plate technique
Format: functional
Conditions: 120 h

Row | SMILES | inhibition at 50 µg/mL [%]
1 | Cc1ccccc1-c1nnc(S(C)(=O)=O)o1 | 99.3
2 | COc1ccccc1-c1nnc(S(C)(=O)=O)o1 | 91.3
